Where a SMILES comes first, the peptide text is derived from it.
Legend:
[1] = tested on: whole blood viscosity; assay: Whole blood viscosity by RBC pipette method, before and after oral APM administration to patients; assay type: in vivo
Protocol: Blood samples were obtained from ten patients having homozygous HgBss disease or heterozygous Hgbsc disease before and after a blinded administration of APM at 1.5 (low dose), 3 (medium dose), or 6 (high dose) milligrams per kilogram body weight. TABLE I: Patient Characteristics
Viscosity determinations using the RBC pipette method of Wright and Jenkins (1970, Blood 36:516) were made on each blinded whole blood sample before and 120 minutes after blinded administration of APM. Each measurement was made in triplicate. Control viscosity measurements using saline and water for each patient and normal whole blood were also made to validate the viscosity measurements.
(§1) To measure viscosity, 1.01 cc of the test fluid, i.e., either water, saline or blood, was drawn into an RBC pipette using a 50 cc syringe attached via rubber tubing to the top of the RBC pipette. Using a constant pressure of 20 mm by maintaining the pressure with visual feedback and hand pressure, the amount of time it took for the test fluid to drip out of the RBC pipette was measured with a stopwatch. Each measurement was made in triplicate. Changes in viscosity from baseline for patient blood samples were recorded and compared to normal controls.

[2] = tested on: whole blood viscosity; assay: Whole blood viscosity by RBC pipette method after in vitro addition of APM to patient blood samples; parameters: species or system patients; conditions: for viscosity of the blood samples compared to the control: samples at 480 minutes post-treatment, additional 1 or 2 milligrams/milliliter APM in vitro
Protocol: as §1
Samples with high viscosity readings at 480 minutes or 1,440 minutes post-treatment, chosen to represent patients with a validated response to APM who were returning to normal, were divided and treated with an additional 0, 1, or 2 milligrams/milliliter APM in vitro, in an effort to measure whether a second inducible sickling response was possible and if a second response to the in vitro APM addition could be observed. The viscosity of each sample at 480 minutes post-treatment was measured.

[3] = tested on: sickle cells; assay: Metabisulfite slide test to measure sickling in blood samples; assay type: cell-based, patients
[4] = clinical trial; unknown mechanism; cited from earlier work
[5] = tested on: red blood cells containing HbS; conditions: disclosed in WO 00/18418; cited from earlier work
[6] = all ten patients, baseline vs 120 minutes post-treatment, APM 1.5, 3 or 6 mg/kg body weight

Compound: COC(=O)[C@H](Cc1ccccc1)NC(=O)[C@@H](N)CC(=O)O [APM, N-L-alpha-aspartyl-L-phenylalanine 1-methyl ester] (H-Asp-Phe-OMe)
- viscosity of HgBss blood ([1]; APM given orally): reduces
- effect on Hgbsc blood ([1]; APM in vivo): not affected
- No. of Patients, Viscosity change decreasing, HgBss ([1]; HgBss patients, baseline vs 120 minutes post-treatment): 5
- No. of Patients, Viscosity change increasing, Hgbsc ([1]; Hgbsc patients, baseline vs 120 minutes post-treatment): 3
- No. of Patients, Viscosity change decreasing [1, 6]: 7
- No. of Patients, Viscosity change increasing [1, 6]: 3
- viscosity compared against Pirofsky's change in viscosity vs. hematocrit standard ([1]; blood samples from patients with sickle cell disease (HgBss)): decreased
- viscosity compared against Pirofsky's change in viscosity vs. hematocrit standard ([1]; blood samples from patients with sickle cell trait (Hbgsc)): increased
- blood viscosity after treatment over time ([1]; five patients identified as HgBss, baseline vs 120 minutes post-treatment): decreased
- No. of Patients, Viscosity change decreasing, sbthal ([1]; sbthal patients, baseline vs 120 minutes post-treatment): 2
- viscosity after treatment over time ([1]; three patients diagnosed as Hgbsc, baseline vs 120 minutes post-treatment): increased
- blood viscosity after treatment over time ([1]; two patients diagnosed as sbthal, baseline vs 120 minutes post-treatment): decreased
- effect on Hgbsc blood ([2]; APM in vitro): not affected
- viscosity of the blood samples compared to the control ([2]; HgBss patients): decreased
- viscosity of the blood samples compared to the control ([2]; Hgbsc patients): increase
- viscosity of HgBss blood ([2]; addition of APM in vitro): reduces
- number of sickle cells in HgBss blood ([3]; APM given orally): reduces
- number of sickle cells in HgBss blood ([3]; addition of APM in vitro): reduces
- pain and inflammation of osteo- and mixed osteo- and rheumatoid arthritis [4]: alleviate
- capacity of red blood cells containing HbS to sickle with hypoxemia [5]: reduction

— EP1218024B1, “ASPARTAME DERIVATIVES FOR DECREASING BLOOD VISCOSITY” (Oklahoma Medical Research Foundation, priority 1999, dated 2001)
